Experimental data published in patent US12552796B2, “EED inhibitor, and preparation method therefor and use thereof” (SHANGHAITECH UNIVERSITY, priority 2019, dated 2026).
Like-named read-outs stand apart in the source and are kept apart here.

Tests used:
[1] = tested on: cellular H3K27 methylation; experiment: Cellular H3K27 methylation assay (Western blot of H3K27me3 in HeLa cells); assay type: cell-based; details: Homo sapiens, 72 h, read-out: PD IC50
WSU-DLCL2 cells = experiment: Cell proliferation assay, WSU-DLCL2; assay type: cell-based; details: Homo sapiens
Procedure: (§1) Human B-cell non-Hodgkin's lymphoma cells WSU-DLCL2, Karpas422 and Pfeiffer were cultured in cell culture flasks in a sterile incubator with 95% relative humidity and 5% CO2 at 37° C. The medium was RPMI-1640 (Gibco, product No. 31800022) containing 15% fetal bovine serum (FBS, Gibco, product No. 10099141) and 0.1% penicillin/streptomycin solution (P/S). In order to assay the effects of compounds on cell proliferation, cells in exponential growth phase were seeded into a 12-well plate (Nunc, product No. 150628) with 1 mL of medium per well, wherein WSU-DLCL2 and Karpas422 were seeded at a density of 1×10^5 cells/well, and Pfeiffer was seeded at a density of 2×10^5 cells/well. At the same time, different concentrations of compounds were added to the wells that had seeded with cells (6 concentrations were set for each compound at 3-fold serial dilution), and the final concentration of DMSO was 0.1%. After that, the number of viable cells was determined by Vi-CELL (Beckman Coulter) for WSU-DLCL2 and Pfeiffer every 3 days, and for Karpas422 on days 4, 7, and 11, respectively. The cells counted each time were seeded into a new 12-well plate at the same density, and supplemented with fresh medium to 1 mL. Different concentrations of compounds were added at the same time. WSU-DLCL2 and Pfeiffer were cultured to the 9th day, and Karpas422 was cultured to the 14th day. Cell data were collected uniformly, and analyzed with GraphPad prisim5. Dose curves were fitted, and IC50 values of the assay compounds were obtained.

Karpas422 cells = experiment: Cell proliferation assay, Karpas422; assay type: cell-based; details: Homo sapiens
Procedure: as §1

[2] = Pharmacokinetic study in rats; assay type: in vivo, SD rats; details: rat; for AUC(0-inf) / Cmax / Tmax / clearance / half-life / MRT inf: male, SD, plasma; for MRT inf: read-out: MRT0-∞
Procedure: Six SPF SD rats, male, weighing 180-220 g, were randomly divided into 2 groups with 3 rats in each group. The compounds of the present disclosure were administered by oral gavage (PO) and intravenous injection (IV), respectively, and the assay compounds were formulated with a vehicle (5% DMSO+10% Solutol+85% pH 4.65 Acetate buffer).
Dosage: 1 mg/kg for intravenous injection and 2 mg/kg for oral administration.
Dosing volume: 5 mL/kg for intravenous injection and 10 mL/kg for oral administration.
The oral administration group was fasted overnight (10-14 h) before the assay, and drank water freely. After 4 hours of administration, they were fed uniformly. They were weighed before administration, and the dosage was calculated according to the body weight.
Intravenous administration: 0.083, 0.25, 0.5, 1, 2, 4, 6, 8, 10 and 24 h after administration;
Oral gavage administration: 0.25, 0.5, 1, 2, 4, 6, 8, 10, 12 and 24 h after administration;
Blood was collected from the jugular vein of rats at the above set time points, about 0.2 mL each time. The blood was anticoagulated with heparin sodium, placed on ice after collection, and centrifuged within 1 hour to separate the plasma (centrifugation conditions: 6800 g, 6 minutes, 2-8° C.). Plasma samples were stored in a −80° C. freezer prior to analysis.
The concentration of each compound in rat plasma was determined by LC/MS/MS method.
Through the plasma drug concentration data at different time points, pharmacokinetic parameters were calculated using Phoenix WinNonlin 7.0, thereby providing parameters such as AUC0-t, AUC0-∞, MRT0-∞, Cmax, Tmax, and T1/2 and mean and standard deviation thereof.

Pfeiffer cells = experiment: Cell proliferation assay, Pfeiffer; assay type: cell-based; details: Homo sapiens, cultured to the 9th day, read-out: Anti-proliferation IC50
Procedure: as §1

[3] = HeLa cells, 3 days, H3K27me3 level by Western blot
[4] = WSUDLCL2, WSU-DLCL2 cells, cultured to the 9th day, read-out: Anti-proliferation IC50
[5] = KARPAS-422, Karpas422 cells, cultured to the 14th day, read-out: Anti-proliferation IC50

| AUC(0-inf) ([2]; IV, 1 mg/kg) [ng·h/mL] | Cmax ([2]; IV, 1 mg/kg) [ng/mL] | Tmax ([2]; IV, 1 mg/kg) [h] | clearance ([2]; IV, 1 mg/kg) [mL/min/kg] | half-life ([2]; IV, 1 mg/kg) [h] | MRT inf ([2]; IV, 1 mg/kg) [h] | AUC(0-inf) ([2]; PO, 2 mg/kg) [ng·h/mL] | Cmax ([2]; PO, 2 mg/kg) [ng/mL] | Tmax ([2]; PO, 2 mg/kg) [h] | half-life ([2]; PO, 2 mg/kg) [h] | MRT inf ([2]; PO, 2 mg/kg) [h] | F ([2]; PO, 2 mg/kg) [%] | IC50 [1, 3] [nM] | IC50 (Karpas422 cells; [5]) [nM] | SMILES | IC50 ([1]; HeLa) [nM] | IC50 (WSU-DLCL2 cells; WSUDLCL2, read-out: Anti-proliferation IC50) [nM] | IC50 (Karpas422 cells; KARPAS-422, read-out: Anti-proliferation IC50) [nM] | IC50 (WSU-DLCL2 cells; [4]) [nM] | IC50 (Pfeiffer cells) [nM] |
| --- | --- | --- | --- | --- | --- | --- | --- | --- | --- | --- | --- | --- | --- | --- | --- | --- | --- | --- | --- |
| 1230 | 1500 | 0.08 | 13.6 | 1.7 | 1.02 | 1450 | 394 | 0.42 | 1.32 | 2.93 | 58.53 | 26.7 | 42.1 | O=C(Nc1cnc(NCc2c(F)ccc3c2CCO3)n2cnnc12)C1CC1 [HJM-030] | – | – | – | 39.6 | – |
| 1140 | 1180 | 0.08 | 14.8 | 1.98 | 1.4 | 1890 | 369 | 1.5 | 1.68 | 3.55 | 82.62 | 32.7 | 99.3 | Fc1ccc2c(c1CNc1ncc(OCC3CCOC3)c3nncn13)CCO2 (stereo not shown) [HJM-102] | – | – | – | 25.1 | 47.4 |

| SMILES | AUC(0-inf) ([2]; IV, 1 mg/kg) [ng·h/mL] | Cmax ([2]; IV, 1 mg/kg) [ng/mL] | Tmax ([2]; IV, 1 mg/kg) [h] | clearance ([2]; IV, 1 mg/kg) [mL/min/kg] | half-life ([2]; IV, 1 mg/kg) [h] | MRT inf ([2]; IV, 1 mg/kg) [h] | AUC(0-inf) ([2]; PO, 2 mg/kg) [ng·h/mL] | Cmax ([2]; PO, 2 mg/kg) [ng/mL] | Tmax ([2]; PO, 2 mg/kg) [h] | half-life ([2]; PO, 2 mg/kg) [h] | MRT inf ([2]; PO, 2 mg/kg) [h] | F ([2]; PO, 2 mg/kg) [%] | IC50 [1, 3] [nM] | IC50 (Karpas422 cells; [5]) [nM] | IC50 ([1]; HeLa) [nM] | IC50 (WSU-DLCL2 cells; WSUDLCL2, read-out: Anti-proliferation IC50) [nM] | IC50 (Karpas422 cells; KARPAS-422, read-out: Anti-proliferation IC50) [nM] | IC50 (WSU-DLCL2 cells; [4]) [nM] | IC50 (Pfeiffer cells) [nM] |
| --- | --- | --- | --- | --- | --- | --- | --- | --- | --- | --- | --- | --- | --- | --- | --- | --- | --- | --- | --- |
| O=C1CCCN1c1cnc(NCc2c(F)ccc3c2CCO3)n2cnnc12 [HJM-067] | 695 | 946 | 0.08 | 24.1 | 3 | 0.8 | 846 | 306 | 0.83 | 3.03 | 2.7 | 60.72 | – | – | 21.1 | 29.4 | 51 | – | – |
